Experimental data as given in ChEMBL document CHEMBL1143229, “PB183, a sigma receptor ligand, as a potential PET probe for the imaging of prostate adenocarcinoma” (Bioorg Med Chem Lett, 2008).

Legend:
[1] = Apparent permeability from apical to basolateral side of human Caco-2 cell membrane at pH 7.4 after 21 days; format: ADME, cell-based; conditions: Caco-2, pH 7.4
[2] = Cytotoxicity against mouse TRAMP cells; format: functional, cell-based
[3] = Displacement of [3H]DTG from mouse sigma-2 receptor in TRAMP cell membrane; format: cell membranes
[4] = Antiproliferative activity against mouse TRAMP cells; format: functional, cell-based
[5] = molecular target: Sigma non-opioid intracellular receptor 1 (Mus musculus, UniProt O55242); assay: Displacement of (+)-[3H]pentazocine from mouse sigma 1 receptor in TRAMP cell membrane; format: cell membranes
Chain of Sigma non-opioid intracellular receptor 1 (O55242 whole entry): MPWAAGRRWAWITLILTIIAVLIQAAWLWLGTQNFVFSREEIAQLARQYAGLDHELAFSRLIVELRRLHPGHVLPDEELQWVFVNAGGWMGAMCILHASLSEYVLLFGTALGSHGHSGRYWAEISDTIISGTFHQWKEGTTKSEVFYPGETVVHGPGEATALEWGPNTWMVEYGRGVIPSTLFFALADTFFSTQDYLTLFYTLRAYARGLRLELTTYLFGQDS

[6] = Selectivity for sigma 2 receptor over sigma 1 receptor

Row | Papp A→B [1] [×10⁻⁶ cm/s] | Ki [5] [µM] | Selectivity ratio [6] | Compound | EC50 [2] [µM] | Ki [3] [µM] | EC50 [4] [µM]
1 | 6.3 | 0.0065 | – | COc1cccc2c(CCCN3CCN(C4CCCCC4)CC3)cccc12 | 26.6 | 0.0005 | 16.9
2 | – | – | 40 | COc1cccc2c1CCCC2CCCN1CCN(C2CCCCC2)CC1 (stereo unspecified) | – | – | –
